Like-named read-outs stand apart in the source and are kept apart here.
Legend:
Type in all cases: in vivo
Spodoptera litura = test: Pesticidal activity against Spodoptera litura, leaf-dipping method; conditions: read-out: mortality rate against Spodoptera litura
Protocol: Cabbage (Daiya) leaves were cut into pieces with a diameter of 5.8 cm, dipped in each of the pesticide compositions prepared in Examples (a 5% acetone solution in which each of the compounds of Synthesis Examples (concentration: 100 ppm) was diluted) for 30 seconds, and sufficiently shade-dried. Then, the shade-dried cabbage leaves were placed in a petri dish (8.8 cm in diameter) covered with a filter paper and repeatedly inoculated 3 times with the second instar larvae of Spodoptera litura, 10 larvae per inoculation. In this case, Spodoptera litura larvae used were those which were purchased from the Bio Utilization Institute (Andong, Korea). Then, the Spodoptera litura larvae were stored under the conditions of 16 hours of light and 8 hours of dark, 25±1° C., and relative humidity of 50-60%, and the number of live Spodoptera litura larvae was counted 48 hours after the inoculation. Thereafter, the larvae mortality rate was calculated in the same manner as in Test Example 1 above.

Plutella xylostella = test: Pesticidal activity against Plutella xylostella, leaf-dipping method; conditions: read-out: larvae mortality rate against Plutella xylostella
Protocol: Cabbage (Daiya) leaves were cut into pieces with a diameter of 5.8 cm, dipped in each of the pesticide compositions prepared in Examples (a 5% acetone solution in which each of the compounds of Synthesis Examples (concentration: 100 ppm) was diluted) for 30 seconds, and sufficiently shade-dried. Then, the shade-dried cabbage leaves were placed in a petri dish (8.8 cm in diameter) covered with a filter paper and repeatedly inoculated 3 times with third instar larvae of Plutella xylostella, 10 larvae per inoculation. In particular, Plutella xylostella larvae used were those which were collected in a place near Gyeongju (Korea) in 2000 and bred in a breeding room for multiple generations. Then, the Plutella xylostella larvae were stored under the conditions of 16 hours of light and 8 hours of dark, 25±1° C., and relative humidity of 50-60%, and the number of live Plutella xylostella larvae was counted 48 hours after the inoculation. Thereafter, the larvae mortality rate was calculated by correcting the density after treatment based on the density before treatment, as shown in Equation 1 and Equation 2 below, and converting the same into the corrected mortality rate for untreated (Reference: A method of computing the effectiveness of an insecticide. J. Econ. Entomol. 18:265˜267. Abbott, 1925).

[1] = tested on: Frankliniella occidentalis; test: Pesticidal activity against Frankliniella occidentalis, spray method; conditions: read-out: mortality rate against Frankliniella occidentalis
Excerpt: A water-soaked filter paper (9.0 cm in diameter) was placed in an insect breeding dish (Lab Guide®) with a diameter of 9.0 cm and a height of 4.0 cm, and then parafilm (width 4.0 cm×height 4.0 cm) was placed thereon. Before treating with a pesticide composition, 10 adult Frankliniella occidentalis were inoculated per petri dish using a No. 4 brush. In this case, Frankliniella occidentalis adults used were those purchased from the Bio Utilization Institute (Andong, Korea). Then, each of the pesticide compositions prepared in Examples (a diluted solution in which each of the compounds of Synthesis Examples (concentration: 100 ppm) was diluted; the solvent=distilled water+acetone 50,000 mg/L+Triton X-100 100 mg/L) was loaded into a 100 mL small sprayer, and sprayed 10-12 times at a distance of 30 cm and a height of 50 cm, and one cotyledons of soybean, which is a host plant, were added one at a time. Then, the Frankliniella occidentalis adults were stored under the conditions of 16 hours of light and 8 hours of darkness, 25±1° C., and relative humidity of 50-60%, and the number of live Frankliniella occidentalis adults was counted 48 hours after the inoculation. Thereafter, the larvae mortality rate was calculated in the same manner as in Test Example 1 above.

Measured: mortality at 100 ppm

C/C=C/C=C/C(=O)NC(=O)c1ccc(C2=NOC(c3cc(Cl)cc(C(F)(F)F)c3)(C(F)(F)F)C2)cc1C (stereo not drawn) [Synthesis Example 72]
≥ 80%: Spodoptera litura; 48 h | Plutella xylostella; 48 h | [1]; 48 h

Cc1ccc(C(=O)N(C)C(=O)c2ccc(C3=NOC(c4cc(Cl)cc(C(F)(F)F)c4)(C(F)(F)F)C3)cc2C)o1 (stereo not drawn) [Synthesis Example 18]
≥ 80%: Spodoptera litura; 48 h | Plutella xylostella; 48 h | [1]; 48 h

Cc1cc(C2=NOC(c3cc(Cl)cc(Cl)c3)(C(F)(F)F)C2)ccc1C(=O)NC(=O)c1ccccc1 (stereo not drawn) [Synthesis Example 37]
≥ 80%: Spodoptera litura; 48 h | Plutella xylostella; 48 h | [1]; 48 h

O=C(c1ccc(C2=NOC(c3cc(Cl)cc(C(F)(F)F)c3)(C(F)(F)F)C2)c2ccccc12)N(CCF)C(=O)C1CC1 (stereo not drawn) [Synthesis Example 17]
≥ 80%: Spodoptera litura; 48 h | Plutella xylostella; 48 h | [1]; 48 h

Cc1cc(C2=NOC(c3cc(Cl)cc(Cl)c3)(C(F)(F)F)C2)ccc1C(=O)NC(=O)C1CC1C1CC1 (stereo not drawn) [Synthesis Example 53]
≥ 80%: Spodoptera litura; 48 h | Plutella xylostella; 48 h | [1]; 48 h

Cc1cc(C2=NOC(c3cc(Cl)cc(C(F)(F)F)c3)(C(F)(F)F)C2)ccc1C(=O)NC(=O)C1CCCC1 (stereo not drawn) [Synthesis Example 69]
≥ 80%: Spodoptera litura; 48 h | Plutella xylostella; 48 h | [1]; 48 h

Cc1cc(C2=NOC(c3cc(Cl)cc(C(F)(F)F)c3)(C(F)(F)F)C2)ccc1C(=O)NC(=O)N1CCCCC1 (stereo not drawn) [Synthesis Example 67]
≥ 80%: Spodoptera litura; 48 h | Plutella xylostella; 48 h | [1]; 48 h

Cc1cc(C2=NOC(c3cccc(C#N)c3)(C(F)(F)F)C2)ccc1C(=O)NC(=O)C1CC1 (stereo not drawn) [Synthesis Example 4]
≥ 80%: Spodoptera litura; 100 ppm, leaf-dipping, second instar larvae, 48 hours after inoculation | Plutella xylostella; 100 ppm, leaf-dipping, third instar larvae, 48 hours after inoculation | [1]; 100 ppm, spray, adults, 48 hours after inoculation

Cc1cc(C2=NOC(c3cc(Cl)cc(C(F)(F)F)c3)(C(F)(F)F)C2)ccc1C(=O)NC(=O)C1CCCO1 (stereo not drawn) [Synthesis Example 85]
≥ 80%: Spodoptera litura; 48 h | Plutella xylostella; 48 h | [1]; 48 h

Cc1cc(C2=NOC(c3cc(Cl)cc(C(F)(F)F)c3)(C(F)(F)F)C2)ccc1C(=O)NC(=O)C1(C)CC1 (stereo not drawn) [Synthesis Example 25]
≥ 80%: Spodoptera litura; 48 h | Plutella xylostella; 48 h | [1]; 48 h

Cc1cc(C2=NOC(c3cc(Cl)cc(C(F)(F)F)c3)(C(F)(F)F)C2)ccc1C(=O)NC(=O)C1(C)CC1(F)F (stereo not drawn) [Synthesis Example 31]
≥ 80%: Spodoptera litura; 48 h | Plutella xylostella; 48 h | [1]; 48 h

CN(C(=O)c1ccc(C2=NOC(c3cc(Cl)cc(Cl)c3)(C(F)(F)F)C2)c2ccccc12)C(=O)C1CC1 (stereo not drawn) [Synthesis Example 14]
≥ 80%: Spodoptera litura; 48 h | Plutella xylostella; 48 h | [1]; 48 h

Cc1cc(C2=NOC(c3cc(Cl)cc(Cl)c3)(C(F)(F)F)C2)ccc1C(=O)NC(=O)C1(C)CC1 (stereo not drawn) [Synthesis Example 24]
≥ 80%: Spodoptera litura; 48 h | Plutella xylostella; 48 h | [1]; 48 h

CCN(C(=O)c1ccc(C2=NOC(c3cc(Cl)cc(C(F)(F)F)c3)(C(F)(F)F)C2)cc1C)C(=O)C1CC1 (stereo not drawn) [Synthesis Example 19]
≥ 80%: Spodoptera litura; 48 h | Plutella xylostella; 48 h | [1]; 48 h

Cc1cc(C2=NOC(c3cc(Cl)cc(Cl)c3)(C(F)(F)F)C2)ccc1C(=O)NC(=O)CC1CC1 (stereo not drawn) [Synthesis Example 55]
≥ 80%: Spodoptera litura; 48 h | Plutella xylostella; 48 h | [1]; 48 h

Cc1cc(C2=NOC(c3cc(Cl)cc(Cl)c3)(C(F)(F)F)C2)ccc1C(=O)N(C)C(=O)C1CC1 (stereo not drawn) [Synthesis Example 13]
≥ 80%: Spodoptera litura; 48 h | Plutella xylostella; 48 h | [1]; 48 h

Cc1cc(C2=NOC(c3cc(Cl)cc(C(F)(F)F)c3)(C(F)(F)F)C2)ccc1C(=O)NC(=O)C1(C#N)CC1 (stereo not drawn) [Synthesis Example 27]
≥ 80%: Spodoptera litura; 48 h | Plutella xylostella; 48 h | [1]; 48 h

Cc1cc(C(=O)NC(=O)c2ccc(C3=NOC(c4cc(Cl)cc(Cl)c4)(C(F)(F)F)C3)cc2C)no1 (stereo not drawn) [Synthesis Example 80]
≥ 80%: Spodoptera litura; 48 h | Plutella xylostella; 48 h | [1]; 48 h

Cc1cc(C2=NOC(c3cc(Cl)cc(C(F)(F)F)c3)(C(F)(F)F)C2)ccc1C(=O)N(CC(F)(F)F)C(=O)C1CC1 (stereo not drawn) [Synthesis Example 20]
≥ 80%: Spodoptera litura; 48 h | Plutella xylostella; 48 h | [1]; 48 h

CC(C)=CC(=O)NC(=O)c1ccc(C2=NOC(c3cc(Cl)cc(C(F)(F)F)c3)(C(F)(F)F)C2)cc1C (stereo not drawn) [Synthesis Example 70]
≥ 80%: Spodoptera litura; 48 h | Plutella xylostella; 48 h | [1]; 48 h

Cn1cc(C(=O)NC(=O)c2ccc(C3=NOC(c4cc(Cl)cc(Cl)c4)(C(F)(F)F)C3)c3ccccc23)c(C(F)F)n1 (stereo not drawn) [Synthesis Example 46]
≥ 80%: Spodoptera litura; 48 h | Plutella xylostella; 48 h | [1]; 48 h

CN(C(=O)c1ccc(C2=NOC(c3cc(Cl)cc(C(F)(F)F)c3)(C(F)(F)F)C2)c2ccccc12)C(=O)C1CC1 (stereo not drawn) [Synthesis Example 12]
≥ 80%: Spodoptera litura; 48 h | Plutella xylostella; 48 h | [1]; 48 h

Cc1cc(C2=NOC(c3cc(Cl)cc(Cl)c3)(C(F)(F)F)C2)ccc1C(=O)NC(=O)N1CCCCC1 (stereo not drawn) [Synthesis Example 66]
≥ 80%: Spodoptera litura; 48 h | Plutella xylostella; 48 h | [1]; 48 h

Cc1cc(C2=NOC(c3cc(Cl)cc(Cl)c3)(C(F)(F)F)C2)ccc1C(=O)NC(=O)C1(C)CC1(F)F (stereo not drawn) [Synthesis Example 30]
≥ 80%: Spodoptera litura; 48 h | Plutella xylostella; 48 h | [1]; 48 h

Cc1cc(C2=NOC(c3cc(Cl)cc(C(F)(F)F)c3)(C(F)(F)F)C2)ccc1C(=O)NC(=O)c1ccco1 (stereo not drawn) [Synthesis Example 59]
≥ 80%: Spodoptera litura; 48 h | Plutella xylostella; 48 h | [1]; 48 h

Cc1cc(C2=NOC(c3cc(Cl)cc(C(F)(F)F)c3)(C(F)(F)F)C2)ccc1C(=O)NC(=O)CC1CC1 (stereo not drawn) [Synthesis Example 75]
≥ 80%: Spodoptera litura; 48 h | Plutella xylostella; 48 h | [1]; 48 h

Cc1cc(C(=O)NC(=O)c2ccc(C3=NOC(c4cc(Cl)cc(C(F)(F)F)c4)(C(F)(F)F)C3)cc2C)no1 (stereo not drawn) [Synthesis Example 82]
≥ 80%: Spodoptera litura; 48 h | Plutella xylostella; 48 h | [1]; 48 h

Cc1cc(C2=NOC(c3cc(Cl)cc(Cl)c3)(C(F)(F)F)C2)ccc1C(=O)NC(=O)C1(C(F)(F)F)CC1 (stereo not drawn) [Synthesis Example 28]
≥ 80%: Spodoptera litura; 48 h | Plutella xylostella; 48 h | [1]; 48 h

Cc1cc(C2=NOC(c3cc(Cl)cc(Cl)c3)(C(F)(F)F)C2)ccc1C(=O)NC(=O)C1(C#N)CC1 (stereo not drawn) [Synthesis Example 26]
≥ 80%: Spodoptera litura; 48 h | Plutella xylostella; 48 h | [1]; 48 h

Cc1cc(C2=NOC(c3cc(C(F)(F)F)cc(C(F)(F)F)c3)(C(F)(F)F)C2)ccc1C(=O)NC(=O)C1CC1 (stereo not drawn) [Synthesis Example 5]
≥ 80%: Spodoptera litura; 48 h | Plutella xylostella; 48 h | [1]; 48 h

O=C(NC(=O)C1CC1)c1ccc(C2=NOC(c3cc(Cl)cc(C(F)(F)F)c3)(C(F)(F)F)C2)c2ccccc12 (stereo not drawn) [Synthesis Example 6]
≥ 80%: Spodoptera litura; 48 h | Plutella xylostella; 48 h | [1]; 48 h

Cc1cc(C2=NOC(c3cc(Cl)cc(Cl)c3)(C(F)(F)F)C2)ccc1C(=O)NC(=O)c1ccno1 (stereo not drawn) [Synthesis Example 81]
≥ 80%: Spodoptera litura; 48 h | Plutella xylostella; 48 h | [1]; 48 h
